Experimental data reported in ChEMBL document CHEMBL1145717, “Nostopeptins A and B, Elastase Inhibitors from the Cyanobacterium Nostoc minutum” (J Nat Prod, 1997).
In brackets after ≈: the same amount, converted by molar mass. Activity calls are given as the source filed them. No cut-off for these calls is given here.

How the values were obtained:
[1] = Inhibition of trypsin at 100 ug/ml
[2] = Inhibition of elastase
[3] = Inhibition of chymotrypsin
[4] = molecular target: Plasminogen (Homo sapiens) (UniProt P00747); assay: Inhibition of plasmin at 100 ug/ml
Chain of Plasminogen (Homo sapiens) (P00747 97-580 limits assumed): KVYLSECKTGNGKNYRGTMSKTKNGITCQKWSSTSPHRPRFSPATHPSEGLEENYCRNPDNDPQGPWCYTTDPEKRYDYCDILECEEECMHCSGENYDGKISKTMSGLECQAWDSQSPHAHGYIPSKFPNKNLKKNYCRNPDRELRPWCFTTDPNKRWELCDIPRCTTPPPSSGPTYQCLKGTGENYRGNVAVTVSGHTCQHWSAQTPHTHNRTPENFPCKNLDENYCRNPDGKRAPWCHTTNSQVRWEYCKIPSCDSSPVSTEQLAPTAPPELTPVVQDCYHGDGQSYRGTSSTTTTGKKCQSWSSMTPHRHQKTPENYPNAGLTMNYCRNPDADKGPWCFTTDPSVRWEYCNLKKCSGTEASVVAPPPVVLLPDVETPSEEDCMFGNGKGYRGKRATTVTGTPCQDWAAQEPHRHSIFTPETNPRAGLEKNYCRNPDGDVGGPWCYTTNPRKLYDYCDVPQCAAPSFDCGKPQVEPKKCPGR
Chain of Plasminogen (Homo sapiens) (P00747 581-810 limits assumed): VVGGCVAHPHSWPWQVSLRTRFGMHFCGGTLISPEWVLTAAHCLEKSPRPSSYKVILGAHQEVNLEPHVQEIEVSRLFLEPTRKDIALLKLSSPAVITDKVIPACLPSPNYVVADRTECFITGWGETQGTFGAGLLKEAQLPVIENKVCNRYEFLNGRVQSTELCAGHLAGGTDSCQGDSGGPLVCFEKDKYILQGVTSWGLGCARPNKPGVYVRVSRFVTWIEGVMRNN

Papain (Carica papaya) = molecular target: T1, Papain (Carica papaya) (UniProt P00784); assay: Inhibition of papaya papain at 100 ug/ml
T1 sequence (whole entry): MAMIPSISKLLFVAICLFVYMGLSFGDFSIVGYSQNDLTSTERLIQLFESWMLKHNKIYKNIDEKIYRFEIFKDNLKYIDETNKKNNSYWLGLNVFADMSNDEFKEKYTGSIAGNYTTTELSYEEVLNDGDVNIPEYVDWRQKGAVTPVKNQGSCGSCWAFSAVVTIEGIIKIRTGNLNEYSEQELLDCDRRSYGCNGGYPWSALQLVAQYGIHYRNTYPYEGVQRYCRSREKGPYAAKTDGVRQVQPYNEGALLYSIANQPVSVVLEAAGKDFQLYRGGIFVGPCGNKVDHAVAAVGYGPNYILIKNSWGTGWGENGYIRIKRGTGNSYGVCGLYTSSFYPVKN

[5] = molecular target: Prothrombin (Homo sapiens) (UniProt P00734); assay: Inhibition of thrombin at 100 ug/ml

| SMILES | Activity [1] | IC50 [2] | IC50 [3] | Activity [4] | Activity (Papain (Carica papaya)) | Activity [5] |
| --- | --- | --- | --- | --- | --- | --- |
| CCCC(=O)N[C@@H](CCC(N)=O)C(=O)N1CC(C)C2OC(=O)[C@H]([C@@H](C)CC)NC(=O)[C@H](Cc3ccc(O)cc3)N(C)C(=O)[C@H]([C@@H](C)CC)N3C(=O)C(CCC3O)NC(=O)[C@H](CC(C)C)NC(=O)[C@H]21 (some centres not stated) [NOSTOPEPTIN A] | inactive | 1.3 µg/mL (≈ 1.36 µM) | 1.4 µg/mL (≈ 1.47 µM) | inactive | inactive | inactive |
| CC[C@H](C)[C@@H]1NC(=O)[C@H](Cc2ccc(O)cc2)N(C)C(=O)[C@H]([C@@H](C)CC)N2C(=O)C(CCC2O)NC(=O)[C@H](CC(C)C)NC(=O)[C@@H]2C(OC1=O)C(C)CN2C(=O)[C@H](CCC(N)=O)NC(C)=O (some centres not stated) [NOSTOPEPTIN B] | inactive | 11 µg/mL (≈ 11.9 µM) | 1.6 µg/mL (≈ 1.73 µM) | inactive | inactive | inactive |
